Experimental data published in ChEMBL document CHEMBL1201862, “PubChem BioAssay data set” (2004).
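Step 1: Grow cells in 96-well plates. Step 2: Expose to compound for 48 hours at 5 concentrations. Step 3: Interpolate endpoints linearly; if unreached, use highest concentration. GI50 marks 50% less growth.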 The source made the active and inactive calls. No stated cut-off is given here; in the data, active = GI50 up to about 1.1 µM and inactive = higher.

How the values were obtained:
Experiment in all cases: NCI tumour cell line growth inhibition, 48 h
[1] = tested on: SK-MEL-5
[2] = tested on: SR
[3] = tested on: K562
[4] = tested on: SN12C
[5] = tested on: SNB-75
[6] = tested on: NCI-H226
[7] = tested on: BT-549
[8] = tested on: PC-3
[9] = tested on: SF-295
[10] = tested on: HCC 2998
[11] = tested on: SF-268
[12] = tested on: NCI-H522
[13] = tested on: U-251
[14] = tested on: HOP-62
[15] = tested on: UACC-62
[16] = tested on: Hs-578T
[17] = tested on: A498
[18] = tested on: SK-MEL-2
[19] = tested on: Malme-3M

Measured: GI50

COCCCN1C(=O)C2c3[nH]c4ccccc4c3C3CCC(C(C)(C)C)CC3C2C1=O (centres undefined)
inactive: [1] 27.4 µM | [2] 25.4 µM | [3] > 10 µM | [4] 21.4 µM | [5] 47.6 µM | [6] 25.4 µM | [7] 20.5 µM | [8] 19.1 µM | [9] 24.1 µM | [10] 20.3 µM | [11] 43.7 µM | [12] 21.7 µM | [13] 17.7 µM | [14] 22.4 µM | [15] > 10 µM | [16] 32.1 µM

Cc1ccc2[nH]c(=O)c(-c3cnc(O)nn3)c(O)c2c1
inactive: [1] 11.8 µM | [2] > 100 µM | [3] 1.8 µM | [4] > 100 µM | [5] > 100 µM | [17] > 100 µM | [6] > 100 µM | [7] 80.2 µM | [8] 15.6 µM | [18] 45 µM | [9] 60.7 µM | [11] > 100 µM | [13] > 100 µM | [14] > 100 µM | [15] 26.4 µM | [19] > 100 µM | [16] > 100 µM

O=C1c2cn[nH]c2N=C(Nc2ccccc2)C1/N=C/c1ccc([N+](=O)[O-])cc1 (centres undefined)
inactive: [1] > 10 µM | [2] > 10 µM | [3] > 10 µM | [4] > 10 µM | [5] > 10 µM | [6] > 10 µM | [7] > 10 µM | [8] > 10 µM | [9] > 10 µM | [10] > 10 µM | [11] > 10 µM | [12] > 10 µM | [13] > 10 µM | [19] > 10 µM | [16] > 10 µM

O=c1c2ccccc2nc(-c2cccc([N+](=O)[O-])c2)n1O
inactive: [1] 32.7 µM | [2] > 100 µM | [3] 4.22 µM | [4] 24.2 µM | [5] 45.8 µM | [17] > 40.7 µM | [6] 23.7 µM | [7] 12 µM | [18] 22.6 µM | [9] 40.1 µM | [10] 59.6 µM | [11] 34.4 µM | [12] 28.6 µM | [13] 27.4 µM | [14] 49 µM | [15] 33.5 µM | [19] > 80 µM | [16] > 100 µM

C[C@]12CC[C@H]3[C@@H](CC=C4C[C@@H](N5CCCC5)CC[C@@]43C)[C@@H]1C/C(=C\c1ccc([N+](=O)[O-])cc1)[C@@H]2O
inactive: [1] 15 µM | [2] 1.88 µM | [4] 14.4 µM | [17] 15.3 µM | [6] 18.5 µM | [7] 13.5 µM | [8] 24.3 µM | [18] > 10 µM | [9] 24.9 µM | [11] 17.5 µM | [12] 17.1 µM | [13] 12.7 µM | [14] 17.9 µM | [15] 15.8 µM | [19] 16.5 µM | [16] 18.5 µM

C/C(C[n+]1ccccc1)=N\N=C(N)N
inactive: [1] > 100 µM | [3] > 100 µM | [4] > 100 µM | [5] > 100 µM | [17] > 100 µM | [6] > 100 µM | [7] > 100 µM | [8] > 100 µM | [18] 73.8 µM | [9] > 100 µM | [10] > 100 µM | [11] > 100 µM | [12] > 100 µM | [13] > 100 µM | [14] > 100 µM | [15] > 100 µM | [19] > 100 µM | [16] > 100 µM

O=C1NC(N2CCOCC2)=N/C1=C\c1ccc(Cl)cc1
inactive: [2] > 100 µM | [4] > 100 µM | [5] 60.8 µM | [6] > 100 µM | [7] > 100 µM | [8] > 100 µM | [18] > 100 µM | [9] > 100 µM | [10] > 100 µM | [11] > 100 µM | [12] > 100 µM | [13] > 100 µM | [14] > 100 µM | [15] > 100 µM | [19] > 100 µM | [16] > 100 µM

NS(=O)(=O)c1ccc(/N=N/c2ccc(O)c(C(=O)O)c2)cc1 [SALAZOSULFAMIDE]
inactive: [1] > 100 µM | [3] > 100 µM | [4] > 100 µM | [5] 69 µM | [17] > 100 µM | [6] > 100 µM | [7] > 100 µM | [8] > 100 µM | [18] 20.7 µM | [9] > 100 µM | [10] > 100 µM | [11] > 100 µM | [12] 82.4 µM | [13] > 100 µM | [14] > 100 µM | [15] > 100 µM | [19] 52.2 µM | [16] 23.6 µM
